Where two headings read alike, the source gives them in different places.
Experiments:
Format in all cases: biochemical
[1] = biological target: T1, Electrophorus electricus AChE (EeAChE) (Electrophorus electricus, UniProt O42275); experiment: Percent inhibition of EeAChE, Ellman's spectrophotometric method; details: for inhibition at 90 µM: read-out: % inhibition vs EeAChE ± SD (90 uM), 90 uM; for inhibition at 900 µM: read-out: % inhibition vs EeAChE ± SD (900 uM), 900 uM; for inhibition at 0.09 µM: read-out: % inhibition vs EeAChE ± SD, [I] 90 nM; for inhibition at 0.9 µM: read-out: % inhibition vs EeAChE ± SD, [I] 900 nM
T1 construct: purchased Sigma-Aldrich (Milan, Italy)
T1 sequence (O42275 24-633): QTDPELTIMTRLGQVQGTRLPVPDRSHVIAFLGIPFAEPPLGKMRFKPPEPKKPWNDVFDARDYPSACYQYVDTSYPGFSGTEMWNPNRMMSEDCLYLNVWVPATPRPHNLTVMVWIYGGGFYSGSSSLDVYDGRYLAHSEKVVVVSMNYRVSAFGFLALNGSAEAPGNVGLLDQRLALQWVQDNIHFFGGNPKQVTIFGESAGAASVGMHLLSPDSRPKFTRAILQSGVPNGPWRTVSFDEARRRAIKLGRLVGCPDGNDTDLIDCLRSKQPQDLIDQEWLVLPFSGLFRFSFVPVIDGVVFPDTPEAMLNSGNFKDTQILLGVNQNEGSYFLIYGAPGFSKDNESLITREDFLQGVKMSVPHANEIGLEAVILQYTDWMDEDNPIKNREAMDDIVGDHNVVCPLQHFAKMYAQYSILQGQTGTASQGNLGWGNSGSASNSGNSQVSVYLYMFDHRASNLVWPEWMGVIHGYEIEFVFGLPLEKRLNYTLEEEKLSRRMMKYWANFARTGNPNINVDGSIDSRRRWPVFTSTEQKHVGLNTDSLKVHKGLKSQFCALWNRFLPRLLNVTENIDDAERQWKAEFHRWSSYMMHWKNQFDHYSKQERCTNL
Experimental: (§1) All other chemical and biological reagents and solvents used were of the highest analytical, commercially available grade. The water, utilized for the preparation of the phosphate buffer and of the compound solutions, was distilled and filtered on nylon membrane filters with a 0.2 μm pore size with the Millipore Filtration apparatus before each use. Micropipettes Labmate (BRAND Dig. 10–100 μL; Dig. 100–1000 μL; Dig. 0.1–2 μL) and Transferpette (HIGH TECH LAB LM200: 20–200 μL; LM5000: 1000–5000 μL) were used to collect the samples. The assays were carried out by a double beam UV–vis Lambda 40 Perkin Elmer spectrophotometer using optical polystyrene cuvettes (10 × 10 × 45 mm, 340–800 nm optical transparency); each measure was repeated at least in triplicate. […] The spectrophotometric method of Ellman[25] with minor modifications was used to evaluate the inhibition of ChEs. […] EeAChE and eqBChE were periodically tested to evaluate the effective enzymatic activity.
(§2) For all the synthesized compounds, the percentages of inhibition toward AChE of Electrophorus electricus (EeAChE) and equine BChE (eqBChE) were evaluated.
Three milliliters of a solution in 0.1 M phosphate buffer (pH = 7.4) containing DTNB (0.25 mM) and EeAChE (0.083 UmL^–1) or eqBChE (0.083 UmL^–1) was placed in a polystyrene cuvette of 1.0 cm path length; 1 μL of a […] With this solution, the blank was made. […] Each experiment was repeated at least in triplicate.

[2] = biological target: T2, equine BChE (eqBChE) (Equus caballus, UniProt P81908); experiment: Percent inhibition of eqBChE, Ellman's spectrophotometric method; details: for % inhibition vs eqBChE ± SD (900 uM): 900 nM; for inhibition at 0.9 µM: [I] 900 nM
T2 construct: purchased Sigma-Aldrich (Milan, Italy)
T2 sequence (P81908 whole entry): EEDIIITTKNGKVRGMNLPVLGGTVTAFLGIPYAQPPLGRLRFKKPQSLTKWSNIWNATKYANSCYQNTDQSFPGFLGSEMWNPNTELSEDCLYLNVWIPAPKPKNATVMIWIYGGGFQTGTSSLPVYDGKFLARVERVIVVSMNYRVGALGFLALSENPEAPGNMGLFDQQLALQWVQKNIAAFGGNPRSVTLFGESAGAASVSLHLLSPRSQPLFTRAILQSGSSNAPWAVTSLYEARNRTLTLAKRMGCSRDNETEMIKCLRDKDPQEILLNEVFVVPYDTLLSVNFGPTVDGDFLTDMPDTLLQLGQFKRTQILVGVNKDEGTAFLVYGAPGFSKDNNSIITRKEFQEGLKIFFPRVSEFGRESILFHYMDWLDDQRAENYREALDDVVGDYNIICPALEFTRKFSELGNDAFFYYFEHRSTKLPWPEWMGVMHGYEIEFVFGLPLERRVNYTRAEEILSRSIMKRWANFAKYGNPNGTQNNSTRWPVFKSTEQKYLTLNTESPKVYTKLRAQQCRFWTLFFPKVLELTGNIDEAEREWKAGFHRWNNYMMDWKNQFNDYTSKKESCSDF
Experimental: On the synthesized compounds, enzymatic inhibition studies were carried out toward Electrophorus electricus AChE (EeAChE) and equine BChE (eqBChE) according to Ellman’s spectrophotometric method.[25]
as §1, §2
Three milliliters of a solution in 0.1 M phosphate buffer (pH = 7.4) containing DTNB (0.25 mM) and EeAChE (0.083 UmL^–1) or eqBChE (0.083 UmL^–1) was placed in a polystyrene cuvette of 1.0 cm path length; 1 μL of a solution in DMSO of the tested compound was added to obtain a cuvette concentration range of 9–0.09 μM. With this solution, the blank was made. […] Each experiment was repeated at least in triplicate.

[3] = biological target: T2, equine BChE (eqBChE); experiment: Inhibition constant and mechanism vs eqBChE, Dixon's method; details: for inhibition mechanism on eqBChE: Dixon's plot, best fitting model; for α, eqBChE: mixed inhibition, α > 1 free enzyme, α < 1 enzyme–substrate complex; for Ki: three substrate and five inhibitor concentrations, read-out: Ki ± SD, eqBChE
Experimental: . The recorded data were analyzed with the enzyme kinetic module of SigmaPlot to find the best fitting model of inhibition using the linear regression analysis. The reference kinetic models used in the regression analysis were competitive, noncompetitive, uncompetitive, and mixed. Each determination was repeated five times, and incorrect values were discarded to reduce the standard deviation within the limit of 5%. In this way, the regression lines obtained have a linear regression coefficient (R^2) higher than 0.95. Dixon’s plots of all tested compounds are reported in the Supporting Information (Figures S1–S12).
18, 22, 25, 26, 28, and 30 toward eqBChE). For each compound, a 500 μM stock solution was prepared in H2O/DMSO or in 10^–2 M HCl and diluted in water to prepare solutions of opportune concentrations to introduce in the cuvette volumes ranging from 30 to 100 μL, to obtain the desired final concentrations. The maximum amount of DMSO used for the preparation of the stock solution was calculated to have a DMSO content in cuvette <0.033%.
Three milliliters of 0.1 M phosphate buffer (pH = 7.4) containing DTNB (0.25 mM) and EeAChE (0.083 UmL^–1) or eqBChE (0.083 UmL^–1) was mixed with the opportune volume of the inhibitor solution to obtain a final inhibitor concentration in cuvette between 90 and 1800 nM. With this solution, the blank was made. […]. The absorbance variations were measured at 412 nm at 25 °C between 0.5 and 1.5 min.
To determine the inhibition constants (Ki) and the inhibition mechanisms, the rates of hydrolysis at three different concentrations of substrate in the presence of five different concentrations of inhibitor were measured.

[4] = read-out: % inhibition vs EeAChE ± SD (9 uM), 9 uM, supplement csv
[5] = 0.0833 U/mL enzyme, 100 μM acetylthiocholine
[6] = read-out: % inhibition vs EeAChE ± SD, [I] 9 μM, 0.0833 U/mL enzyme, 100 μM acetylthiocholine
[7] = [I] 9 μM, 0.0833 U/mL enzyme, 100 μM acetylthiocholine, read-out: % inhibition vs eqBChE ± SD
[8] = read-out: % inhibition vs eqBChE ± SD (9 uM), 9 uM, supplement csv
[9] = 0.0833 U/mL enzyme, 100 μM acetylthiocholine, read-out: % inhibition vs eqBChE ± SD

Structure (SMILES): c1ccc(CNCCCCCNc2ncccn2)cc1 [Compound 9, N^1-Benzyl-N^5-(pyrimidin-2-yl)pentane-1,5-diamine]
- inhibition at 9 µM [1, 4]: 90.2 ± 0.7%
- inhibition at 90 µM ([1]; supplement csv): 14.1 ± 1.4%
- inhibition at 900 µM ([1]; supplement csv): 57.1 ± 0.9%
- inhibition at 0.09 µM [1, 5]: 14.1 ± 1.4%
- inhibition at 0.9 µM [1, 5]: 40 to 60%
- inhibition at 9 µM [1, 6]: ~90%
- inhibition at 9 µM [2, 7]: 17.4 ± 2.7%
- inhibition at 9 µM [2, 8]: 17.4 ± 2.7%

Structure (SMILES): c1ccc(CNCCCCCCNc2ncccn2)cc1 [Compound 13, N^1-Benzyl-N^6-(pyrimidin-2-yl)hexane-1,6-diamine]
- inhibition at 9 µM [1, 4]: 92.9 ± 0.4%
- inhibition at 90 µM ([1]; supplement csv): 19.2 ± 1.4%
- inhibition at 900 µM ([1]; supplement csv): 60.3 ± 1.5%
- inhibition at 0.09 µM [1, 5]: 19.2 ± 1.4%
- inhibition at 9 µM [1, 6]: ~90%
- inhibition at 9 µM [2, 7]: 26 ± 3.5%
- inhibition at 9 µM [2, 8]: 26 ± 3.5%

Structure (SMILES): COc1cc(CNCCCCCCNc2ncccn2)ccc1O [Compound 18, 2-Methoxy-4-(((6-(pyrimidin-2-ylamino)hexyl)amino)methyl)phenol]
- inhibition at 9 µM [1, 4]: 59.5 ± 3.6%
- inhibition at 900 µM ([1]; supplement csv): 14.7 ± 0.5%
- inhibition at 0.9 µM [1, 5]: 14.7 ± 0.5%
- inhibition at 9 µM [1, 6]: 60 to 70%
- inhibition mechanism on eqBChE [3]: mixed
- α, eqBChE [3]: 7.3
- Ki [3]: 3030 ± 604 nM
- % inhibition vs eqBChE ± SD (900 uM) ([2]; supplement csv): 44.2 ± 6.4%
- inhibition at 0.9 µM [2, 9]: 44%
- inhibition at 9 µM [2, 7]: 84%
- inhibition at 9 µM [2, 8]: 84.4 ± 0.8%

Structure (SMILES): Oc1cccc(CNCCCCCCNc2ncccn2)c1 [Compound 19, 3-(((6-(Pyrimidin-2-ylamino)hexyl)amino)methyl)phenol]
- inhibition at 9 µM [1, 4]: 84.4 ± 0.3%
- inhibition at 900 µM ([1]; supplement csv): 39 ± 1.9%
- inhibition at 0.9 µM [1, 5]: 40 to 60%
- inhibition at 9 µM [1, 6]: ~90%
- inhibition at 9 µM [2, 7]: 26.6 ± 3.9%
- inhibition at 9 µM [2, 8]: 26.6 ± 3.9%

Structure (SMILES): Oc1cccc(CNCCCCCCNc2ncccn2)c1O [Compound 20, 3-(((6-(Pyrimidin-2-ylamino)hexyl)amino)methyl)benzene-1,2-diol]
- inhibition at 9 µM [1, 4]: 90.5 ± 0.5%
- inhibition at 90 µM ([1]; supplement csv): 12.8 ± 1.9%
- inhibition at 900 µM ([1]; supplement csv): 53.6 ± 3.1%
- inhibition at 0.09 µM [1, 5]: 12.8 ± 1.9%
- inhibition at 0.9 µM [1, 5]: 40 to 60%
- inhibition at 9 µM [1, 6]: ~90%
- inhibition at 9 µM [2, 7]: 17.1 ± 1.6%
- inhibition at 9 µM [2, 8]: 17.1 ± 1.6%

Structure (SMILES): c1cnc(NCCCCCCNCc2c[nH]c3ccccc23)nc1 [Compound 22, N^1-((1H-Indol-3-yl)methyl)-N^6-(pyrimidin-2-yl)hexane-1,6-diamine]
- inhibition at 9 µM [1, 4]: 69.2 ± 1.4%
- inhibition at 900 µM ([1]; supplement csv): 16.4 ± 1.9%
- inhibition at 0.9 µM [1, 5]: 16.4 ± 1.9%
- inhibition at 9 µM [1, 6]: 60 to 70%
- inhibition mechanism on eqBChE [3]: mixed
- α, eqBChE [3]: 10
- Ki [3]: 99 ± 71 nM
- % inhibition vs eqBChE ± SD (900 uM) ([2]; supplement csv): 65.1 ± 3.8%
- inhibition at 0.9 µM [2, 9]: 65%
- % inhibition vs eqBChE ± SD ([2]; [I] 9 μM, 0.0833 U/mL enzyme, 100 μM acetylthiocholine): 94.0 ± 0.7%
- inhibition at 9 µM [2, 7]: 94%
- inhibition at 9 µM [2, 8]: 94 ± 0.7%

Structure (SMILES): c1ccc(CNCCCCCNc2ccccn2)cc1 [Compound 23, N^1-Benzyl-N^5-(pyridin-2-yl)pentane-1,5-diamine]
- inhibition at 9 µM [1, 4]: 53.5 ± 1.4%
- inhibition at 90 µM ([1]; supplement csv): 56.5 ± 3%
- inhibition at 900 µM ([1]; supplement csv): 10.3 ± 0.8%
- inhibition at 0.9 µM [1, 5]: 10.3 ± 0.8%
- inhibition at 9 µM [1, 6]: 53.5 ± 1.4%
- inhibition at 0.9 µM [2, 9]: 5 ± 5.8%
- inhibition at 9 µM [2, 7]: 56.5 ± 3%
- inhibition at 9 µM [2, 8]: 5 ± 5.8%

Structure (SMILES): c1ccc(CNCCCCCCNc2ccccn2)cc1 [Compound 25, N^1-Benzyl-N^6-(pyridin-2-yl)hexane-1,6-diamine]
- inhibition at 9 µM [1, 4]: 73.3 ± 0.1%
- inhibition at 90 µM ([1]; supplement csv): 71.6 ± 2.1%
- inhibition at 900 µM ([1]; supplement csv): 23.1 ± 5.7%
- inhibition at 0.9 µM [1, 5]: 23.1 ± 5.7%
- inhibition at 9 µM [1, 6]: 73%
- inhibition mechanism on eqBChE [3]: mixed
- α, eqBChE [3]: 2.2
- Ki [3]: 2370 ± 304 nM
- inhibition at 0.9 µM [2, 9]: 16.6 ± 6.3%
- inhibition at 9 µM [2, 7]: 71.6 ± 2.1%
- inhibition at 9 µM [2, 8]: 16.6 ± 6.3%

Structure (SMILES): Brc1ccc(CNCCCCCCNc2ccccn2)cc1 [Compound 26, N^1-(4-Bromobenzyl)-N^6-(pyridin-2-yl)hexane-1,6-diamine]
- inhibition at 9 µM [1, 4]: 23.5 ± 2.2%
- inhibition at 90 µM ([1]; supplement csv): 76.8 ± 0.5%
- inhibition at 9 µM [1, 6]: 24 to 30%
- inhibition mechanism on eqBChE [3]: mixed
- α, eqBChE [3]: 0.5
- Ki [3]: 3460 ± 1480 nM
- inhibition at 0.9 µM [2, 9]: 17 ± 2.7%
- inhibition at 9 µM [2, 7]: 76.8 ± 0.5%
- inhibition at 9 µM [2, 8]: 17 ± 2.7%

Structure (SMILES): COc1ccccc1CNCCCCCCNc1ccccn1 [Compound 28, N^1-(2-Methoxybenzyl)-N^6-(pyridin-2-yl)hexane-1,6-diamine]
- inhibition at 9 µM [1, 4]: 58.6 ± 1.1%
- inhibition at 90 µM ([1]; supplement csv): 74.3 ± 1.4%
- inhibition at 900 µM ([1]; supplement csv): 9 ± 1.6%
- inhibition at 0.9 µM [1, 5]: 9 ± 1.6%
- inhibition at 9 µM [1, 6]: ~60%
- inhibition mechanism on eqBChE [3]: mixed
- α, eqBChE [3]: 0.8
- Ki [3]: 3430 ± 701 nM
- inhibition at 0.9 µM [2, 9]: 24.2 ± 3.3%
- inhibition at 9 µM [2, 7]: 74.3 ± 1.4%
- inhibition at 9 µM [2, 8]: 24.2 ± 3.3%

Structure (SMILES): COc1cc(CNCCCCCCNc2ccccn2)ccc1O [Compound 30, 2-Methoxy-4-(((6-(pyridin-2-ylamino)hexyl)amino)methyl)phenol]
- inhibition at 9 µM [1, 4]: 61.8 ± 1.9%
- inhibition at 90 µM ([1]; supplement csv): 90.9 ± 0.6%
- inhibition at 900 µM ([1]; supplement csv): 17.3 ± 0.6%
- inhibition at 0.9 µM [1, 5]: 17.3 ± 0.6%
- inhibition at 9 µM [1, 6]: ~60%
- inhibition mechanism on eqBChE [3]: mixed
- α, eqBChE [3]: 1.4
- Ki [3]: 1100 ± 189 nM
- % inhibition vs eqBChE ± SD (900 uM) ([2]; supplement csv): 15.6 ± 6.1%
- inhibition at 0.09 µM ([2]; [I] 90 nM, 0.0833 U/mL enzyme, 100 μM acetylthiocholine, read-out: % inhibition vs eqBChE ± SD): 15.6 ± 6.1%
- inhibition at 0.9 µM [2, 9]: 51%
- inhibition at 9 µM [2, 7]: 91%
- inhibition at 9 µM [2, 8]: 51.2 ± 3.1%

— publication PMC8569681, “New Pyrimidine and Pyridine Derivatives as Multitarget Cholinesterase Inhibitors: Design, Synthesis, and In Vitro and In Cellulo Evaluation” (ACS Chemical Neuroscience, 2021)
